According to article PMC8497620, “Structure and inhibition of Cryptococcus neoformans sterylglucosidase to develop antifungal agents” (Nature Communications, 2021):
“And” between values parts separate entries of the source, which are not always exact repeats. Equal values may be shown once. “Also recorded” adds a separate entry of the source. Read-outs that look alike come from different tables or passages of the source.

Experiments:
C. neoformans Sgl1 [1] = target: T1, C. neoformans Sgl1 (Cryptococcus neoformans var. grubii, UniProt J9W473); assay: Sgl1 inhibition with res-glp substrate (HTS, single-compound dose-response); type: biochemical; details: for inhibition at 0.125 µM: read-out: % Sgl1 Inhibition, 0.125 µM compound; for inhibition at 0.125 µM / inhibition at 0.5 µM / inhibition at 1 µM / inhibition at 2 µM / inhibition at 4 µM / inhibition at 8 µM / inhibition at […] / % Sgl1 Inhibition: substrate resorufin 3β-D-glucopyranoside (100 µM); for inhibition at 0.5 µM: read-out: % Sgl1 Inhibition, 0.5 µM compound; for inhibition at 1 µM: read-out: % Sgl1 Inhibition, 1 µM compound; for inhibition at 2 µM: read-out: % Sgl1 Inhibition, 2 µM compound; for inhibition at 4 µM: read-out: % Sgl1 Inhibition, 4 µM compound; for inhibition at 8 µM: read-out: % Sgl1 Inhibition, 8 µM compound; for inhibition at […]: read-out: % Sgl1 Inhibition, […] compound; for IC50: res-glp as substrate (100 µM), primary screen, read-out: IC50 against Sgl1
Protocol: Resorufin-3β-D-glucopyranoside (res-glp, Sigma-Aldrich) enzyme kinetic assays were performed according to methods described by Urban et al.[16] with modifications. Reaction buffer contained 50 mM citric acid, 176 mM K2HPO4, pH 6, 0.01% Tween-20, and 10 mM sodium taurocholate. The reactions were carried out in black 96-well plates using 20 ng of enzyme with 100 μM res-glp substrate. In all, 10 μL/well of res-glp substrate was added to each well and the reaction was initiated by adding 20 μL enzyme (20 ng). After incubation at 37 °C for 30–40 min, the fluorescence was read at an excitation of 570 (±10) nm and an emission of 610 (±10) nm on a VersaMax™ Microplate Reader from Molecular Devices. A standard curve was prepared with serial dilutions of the free fluorophore, resorufin, in the same volume of assay buffer.
A ChemBridge DIVERSet-CL library (San Diego, CA) containing 50,000 compounds was screened to identify small molecules that inhibit C. neoformans Sgl1. The library was prepared in a 96-well plate format containing a cocktail of 10 compounds per well at 1 mM each in 100% DMSO. The cocktail plates were first diluted to 100 μM each (1:10 dilution in Dulbecco’s phosphate-buffered saline, DPBS) resulting in 10% DMSO. In order to screen the compound cocktails at […] in 1% DMSO in a final reaction volume of 30 μL an aliquot of 3 μL was added to 17 μL of buffer containing 20 ng of enzyme and the reaction was started adding 10 μL of 100 μM res-glp. A negative control without enzyme and positive controls with and without DMSO were prepared. The plates were incubated at 37 °C for 40 min.
The Z′-factor was used for the assessment of the efficiency of the HTS assay for each individual plate. Values greater than 0.5 has been considered as an indicator of an excellent screening assay quality.

C. neoformans H99 [2] = type: cell-based, Cryptococcus neoformans; details: for Ergosterol 3β-D-glucoside accumulation (pmol/ Inorganic phosphate): 100 µM; for accumulation of erg-glc, fold less than the mutant Cn Δsgl1: 500 µM, 24 h; for erg-glc accumulation compared to untreated Cn H99 control: 24 h of treatment
Protocol: C. neoformans H99 was cultivated in yeast nitrogen base (YNB) broth for 24 h at 37 °C with shaking. […] […] After that, the resultant pellets were re-counted and used for lipid extraction. Thenceforth the total lipid was extracted as described previously by Singh et al.[55]. The dried samples were resuspended in chloroform/methanol 2:1 ratio for LC-MS analysis. A standard erg-glc from Avanti Polar Lipids was used as a control for the calibration curve. Data were normalized to the total inorganic phosphate content in the sample.

C. neoformans Sgl1 [3] = target: T1, C. neoformans Sgl1; assay: Sgl1 inhibition with native substrate erg-glc; type: biochemical; details: substrate ergosterol 3β-D-glucoside (1 mol%); for inhibition at 10 µM: read-out: % Sgl1 Inhibition, 10 µM compound; for inhibition at 100 µM: read-out: % Sgl1 Inhibition, 100 µM compound; for inhibition at 0.1 µM: read-out: % Sgl1 Inhibition, 0.1 µM compound; for inhibition at 1 µM: read-out: % Sgl1 Inhibition, 1 µM compound
Protocol: To validate the selective inhibition of Sgl1 by these compounds, we first tested their ability to inhibit hydrolysis of erg-glc in vitro.
A 50 μL volume of Cn Sgl1 wild type and 50 μL of mixed micelles of lipid and Triton X-100 in 50 mM Bis-Tris buffer with 150 mM NaCl, 5 mM βME, and 5 mM DTT were mixed and incubated at 37 °C for 10 min (erg-glc, Avanti Polar Lipids) and 1 h (C6-NBD-glcCer, Matreya). For the substrate erg-glc the amount of protein was 5 ng. 150 ng protein was used for reactions with C6-NBD-GlcCer. After the incubation period, each reaction was quenched with a 2:1 chloroform:methanol solution and the organic phase was collected and dried. Then, the lipid content was resuspended in 50 μL methanol and applied to HPLC (Agilent Technologies). Total erg-glc and ergosterol was detected using absorbance at 282 nm on a C-8 column with a flow rate of 0.5 ml/min in methanol/water 90:10 ratio buffered with 1 mM ammonium formate and 0.2% formic acid. A 85:15 ratio of the same eluent was used for C6-NBD-GlcCer and C6-NBD-ceramide monitoring the fluorescence at 470/530 nm excitation/emission. The total area of product was normalized by the total area of its respective substrate.

C. neoformans H99 [4] = assay: Growth inhibition assay (YNB, 1% glucose, sealed plates, limited oxygen); type: cell-based, Cryptococcus neoformans; details: 37 °C, 72 h
Protocol: Five microliters containing 100 cells of C. neoformans H99 were inoculated in solid YNB media without amino acids plus 1% w/v glucose. Plates were then sealed with clear polyolefin sealing tape (ThermoFisher) and incubated at 37 °C for 72 h. Hits 1, 9, and 15 were added to the media at concentrations of 10 and 50 µM. H99, Δsgl1, and Δsgl1 + SGL1 strains were used as controls without compounds.

[5] = tested on: human lung epithelial cancer cell line A549; details: LD50 A549 / IC50 Sgl1
Protocol: The cells were maintained in Dulbecco’s modified eagle medium containing 10% fetal bovine serum and 1% penicillin–streptomycin. At passage 11, 10^5 cells were transferred into each well of 96-well plates and cultured for 18–24 h for the cells to adhere to the well surface. After, the medium was removed and a fresh medium containing the selected compounds at a concentration range of 1–512 μM were added to the wells. Controls with equivalent serial concentrations of DMSO were also evaluated and compared with a control without DMSO. The plate was incubated at 37 °C with 5% CO2. After 24 h, the supernatant was removed and 50 μL of 5 mg/mL 3-(4,5-dimethylthiazol-2-yl)-2,5-diphenyltetrazoliumbromide (MTT) solution in phosphate-buffered saline (PBS) was added to each well. The plates were incubated for an additional 4 h and the formazan crystals formed inside the cell was dissolved by adding 50 μL DMSO.

T1 sequence (J9W473 entry or part of it): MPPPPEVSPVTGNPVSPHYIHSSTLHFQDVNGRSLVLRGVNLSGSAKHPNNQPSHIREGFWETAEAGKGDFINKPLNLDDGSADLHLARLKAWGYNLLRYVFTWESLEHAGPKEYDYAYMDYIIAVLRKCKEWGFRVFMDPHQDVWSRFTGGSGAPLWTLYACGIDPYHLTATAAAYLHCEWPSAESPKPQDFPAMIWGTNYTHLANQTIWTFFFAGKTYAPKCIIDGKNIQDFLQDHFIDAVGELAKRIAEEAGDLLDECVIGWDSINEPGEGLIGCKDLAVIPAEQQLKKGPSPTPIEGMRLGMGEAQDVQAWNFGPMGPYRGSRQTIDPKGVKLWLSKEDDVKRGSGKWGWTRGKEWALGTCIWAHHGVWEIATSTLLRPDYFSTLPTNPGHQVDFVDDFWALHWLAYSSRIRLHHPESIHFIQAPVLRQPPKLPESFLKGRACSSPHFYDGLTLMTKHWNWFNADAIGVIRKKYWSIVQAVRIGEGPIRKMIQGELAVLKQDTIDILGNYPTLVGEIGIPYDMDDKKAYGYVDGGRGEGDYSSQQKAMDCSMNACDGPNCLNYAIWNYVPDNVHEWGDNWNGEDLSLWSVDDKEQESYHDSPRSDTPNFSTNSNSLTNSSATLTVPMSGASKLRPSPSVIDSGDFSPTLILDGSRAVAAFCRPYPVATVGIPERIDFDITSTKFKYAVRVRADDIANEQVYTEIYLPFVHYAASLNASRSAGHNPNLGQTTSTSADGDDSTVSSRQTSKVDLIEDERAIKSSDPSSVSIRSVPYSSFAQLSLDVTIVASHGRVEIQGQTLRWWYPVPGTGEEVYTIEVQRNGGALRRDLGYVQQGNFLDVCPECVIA

COc1cccc(-c2ncc(CN3CCC(O)(CO)CC3)s2)c1 [Hit 1]
inhibition at 0.125 µM (C. neoformans Sgl1 [1]): 0%
inhibition at 0.5 µM (C. neoformans Sgl1 [1]): 14%
inhibition at 1 µM (C. neoformans Sgl1 [1]): 45.8%
inhibition at 2 µM (C. neoformans Sgl1 [1]): 56.1%
inhibition at 4 µM (C. neoformans Sgl1 [1]): 74%
inhibition at 8 µM (C. neoformans Sgl1 [1]): 90.2%
inhibition at […] (C. neoformans Sgl1 [1]): 0%
IC50 (C. neoformans Sgl1 [1]): ~1000 nM and 1000 nM
Ergosterol 3β-D-glucoside accumulation (pmol/ Inorganic phosphate) (C. neoformans H99 [2]; 12h): 22000000 pmol/ Inorganic phosphate and 25300000 pmol/ Inorganic phosphate and 19400000 pmol/ Inorganic phosphate
Ergosterol 3β-D-glucoside accumulation (pmol/ Inorganic phosphate) (C. neoformans H99 [2]; 24h): 17200000 pmol/ Inorganic phosphate and 20300000 pmol/ Inorganic phosphate and 31000000 pmol/ Inorganic phosphate
accumulation of erg-glc, fold less than the mutant Cn Δsgl1 (C. neoformans H99 [2]): about 10 fold
erg-glc accumulation compared to untreated Cn H99 control (C. neoformans H99 [2]): significant differences, especially in concentrations higher than 10 µM
% Sgl1 Inhibition (C. neoformans Sgl1 [3]; 0.1 µM compound, 0.1 µM): 11.4412% and 5.382%
% Sgl1 Inhibition (C. neoformans Sgl1 [3]; 10 µM compound, 10 µM): 46.34%
% Sgl1 Inhibition (C. neoformans Sgl1 [3]; 100 µM compound, 100 µM): 79.9522%
inhibition at 10 µM (C. neoformans Sgl1 [3]): 40.5%
inhibition at 100 µM (C. neoformans Sgl1 [3]): 84.8%
growth of wild-type C. neoformans (C. neoformans H99 [4]; 50 µM): inhibit growth similarly to C. neoformans Δsgl1; also recorded: lack of growth
selectivity index (SI = LD50/IC50) [5]: > 500

CN1C[C@@H](NC(=O)Cc2ccc3c(c2)NC(=O)CO3)C[C@@H]1CO [Hit 9]
% Sgl1 Inhibition (C. neoformans Sgl1 [1]; 0.125 µM compound): 56.0175% and 54.9266% and 54.4568%
% Sgl1 Inhibition (C. neoformans Sgl1 [1]; 0.5 µM compound): 83.3956% and 82.99% and 82.7099%
% Sgl1 Inhibition (C. neoformans Sgl1 [1]; 1 µM compound): 91.001% and 90.7947% and 90.4821%
% Sgl1 Inhibition (C. neoformans Sgl1 [1]; 2 µM compound): 95.2753% and 95.0933% and 95.0009%
% Sgl1 Inhibition (C. neoformans Sgl1 [1]; 4 µM compound): 97.4258% and 97.3045% and 97.2378%
% Sgl1 Inhibition (C. neoformans Sgl1 [1]; 8 µM compound): 98.6119% and 98.5721% and 98.4808%
inhibition at 0.125 µM (C. neoformans Sgl1 [1]): 57.2%
inhibition at 0.5 µM (C. neoformans Sgl1 [1]): 84%
inhibition at 1 µM (C. neoformans Sgl1 [1]): 91.3%
inhibition at 2 µM (C. neoformans Sgl1 [1]): 95.5%
inhibition at 4 µM (C. neoformans Sgl1 [1]): 97.5%
inhibition at 8 µM (C. neoformans Sgl1 [1]): 98.6%
inhibition at […] (C. neoformans Sgl1 [1]): 73.1%
IC50 (C. neoformans Sgl1 [1]): ~1000 nM
accumulation of erg-glc, fold less than the mutant Cn Δsgl1 (C. neoformans H99 [2]): about 10 fold
% Sgl1 Inhibition (C. neoformans Sgl1 [3]; 0.1 µM compound, 0.1 µM): 58.2711%
% Sgl1 Inhibition (C. neoformans Sgl1 [3]; 1 µM compound, 1 µM): 93.4351%
% Sgl1 Inhibition (C. neoformans Sgl1 [3]; 10 µM compound, 10 µM): 98.2082%
% Sgl1 Inhibition (C. neoformans Sgl1 [3]; 100 µM compound, 100 µM): 100%
inhibition at 0.1 µM (C. neoformans Sgl1 [3]): 52.2%
inhibition at 1 µM (C. neoformans Sgl1 [3]): 92.9%
inhibition at 10 µM (C. neoformans Sgl1 [3]): 97.6%
inhibition at 100 µM (C. neoformans Sgl1 [3]): 98.1%
growth of wild-type C. neoformans (C. neoformans H99 [4]; 10 µM): abrogated C. neoformans growth
growth of wild-type C. neoformans (C. neoformans H99 [4]; 50 µM): inhibit growth similarly to C. neoformans Δsgl1; also recorded: lack of growth
selectivity index (SI = LD50/IC50) [5]: > 500

CC(C)c1nc(N[C@@H]2C[C@@H](CO)N(C)C2)c2cnn(C)c2n1 [Hit 15]
% Sgl1 Inhibition (C. neoformans Sgl1 [1]; 0.125 µM compound): 9.082% and 9.377% and 8.377%
% Sgl1 Inhibition (C. neoformans Sgl1 [1]; 0.5 µM compound): 26.2814% and 26.2434% and 24.9511%
% Sgl1 Inhibition (C. neoformans Sgl1 [1]; 1 µM compound): 39.5402% and 38.9055% and 37.6785%
% Sgl1 Inhibition (C. neoformans Sgl1 [1]; 2 µM compound): 58.3844% and 57.9199% and 56.5095%
% Sgl1 Inhibition (C. neoformans Sgl1 [1]; 4 µM compound): 75.564% and 74.8313% and 74.139%
% Sgl1 Inhibition (C. neoformans Sgl1 [1]; 8 µM compound): 85.0771% and 84.7714% and 84.105%
inhibition at 0.125 µM (C. neoformans Sgl1 [1]): 10.2%
inhibition at 0.5 µM (C. neoformans Sgl1 [1]): 27.9%
inhibition at 1 µM (C. neoformans Sgl1 [1]): 40.8%
inhibition at 2 µM (C. neoformans Sgl1 [1]): 59.6%
inhibition at 4 µM (C. neoformans Sgl1 [1]): 76.4%
inhibition at 8 µM (C. neoformans Sgl1 [1]): 85.5%
inhibition at […] (C. neoformans Sgl1 [1]): 14.9%
IC50 (C. neoformans Sgl1 [1]): ~1000 nM and 1000 nM
Ergosterol 3β-D-glucoside accumulation (pmol/ Inorganic phosphate) (C. neoformans H99 [2]; 12h): 28100000 pmol/ Inorganic phosphate and 30500000 pmol/ Inorganic phosphate and 41500000 pmol/ Inorganic phosphate
Ergosterol 3β-D-glucoside accumulation (pmol/ Inorganic phosphate) (C. neoformans H99 [2]; 24h): 39400000 pmol/ Inorganic phosphate and 51600000 pmol/ Inorganic phosphate and 57400000 pmol/ Inorganic phosphate
Ergosterol 3β-D-glucoside accumulation (pmol/ Inorganic phosphate) (C. neoformans H99 [2]; 48h): 34400000 pmol/ Inorganic phosphate and 28300000 pmol/ Inorganic phosphate and 33700000 pmol/ Inorganic phosphate
accumulation of erg-glc, fold less than the mutant Cn Δsgl1 (C. neoformans H99 [2]): about 10 fold
erg-glc accumulation compared to untreated Cn H99 control (C. neoformans H99 [2]): significant differences, especially in concentrations higher than 10 µM
% Sgl1 Inhibition (C. neoformans Sgl1 [3]; 0.1 µM compound, 0.1 µM): 19.6403%
% Sgl1 Inhibition (C. neoformans Sgl1 [3]; 1 µM compound, 1 µM): 70.0789%
% Sgl1 Inhibition (C. neoformans Sgl1 [3]; 10 µM compound, 10 µM): 95.289%
inhibition at 0.1 µM (C. neoformans Sgl1 [3]): 26.7%
inhibition at 1 µM (C. neoformans Sgl1 [3]): 73.4%
inhibition at 10 µM (C. neoformans Sgl1 [3]): 95.2%
inhibition at 100 µM (C. neoformans Sgl1 [3]): 100%
growth of wild-type C. neoformans (C. neoformans H99 [4]; 10 µM): abrogated C. neoformans growth
growth of wild-type C. neoformans (C. neoformans H99 [4]; 50 µM): inhibit growth similarly to C. neoformans Δsgl1; also recorded: lack of growth
selectivity index (SI = LD50/IC50) [5]: > 500
selectivity index (SI = LD50/IC50) ([5]; listed as 15): > 512
